# Assay results published in ChEMBL document CHEMBL1201862, “PubChem BioAssay data set” (2004).
#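 Growth conditions: 96-well plates. Treatment: test compound, 48 hours, 5 concentrations. Analysis: linear interpolation between bracketing concentrations; unreached endpoints set to highest concentration. GI50 is the concentration that inhibits growth by half.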 Calls of active or inactive are those of the source. Rule as the data show it: active = GI50 up to about 1.1 µM and inactive = higher.
# What was measured:
# Test in all cases: inhibition of tumour cell growth, NCI panel, 48 h
# KM12 = tested on: KM12
# HCT-15 = tested on: HCT-15
# RPMI-8226 = tested on: RPMI-8226
# HOP-62 = tested on: HOP-62
# SF-295 = tested on: SF-295
# MDA-N = tested on: MDA-N
# SR = tested on: SR
# RXF 393 = tested on: RXF 393
# MDA-MB-231 = tested on: MDA-MB-231
# SF-268 = tested on: SF-268
# HT-29 = tested on: HT-29
# ACHN = tested on: ACHN
# HOP-92 = tested on: HOP-92
# NCI-H23 = tested on: NCI-H23
# T47D = tested on: T47D
# BT-549 = tested on: BT-549
# CCRF-CEM = tested on: CCRF-CEM
# HCC 2998 = tested on: HCC 2998
# OVCAR-5 = tested on: OVCAR-5
# SW-620 = tested on: SW-620
# NCI-H522 = tested on: NCI-H522
# CAKI-1 = tested on: CAKI-1
# MCF7 = tested on: MCF7
# MDA-MB-435 = tested on: MDA-MB-435
# SK-OV-3 = tested on: SK-OV-3
# A549 = tested on: A549
# PC-3 = tested on: PC-3
# Hs-578T = tested on: Hs-578T
# OVCAR-8 = tested on: OVCAR-8
# NCI-H460 = tested on: NCI-H460
# 786-0 = tested on: 786-0
# HL-60 = tested on: HL-60
# A498 = tested on: A498
# HCT-116 = tested on: HCT-116
# K562 = tested on: K562
# TK-10 = tested on: TK-10
# U-251 = tested on: U-251
# UO-31 = tested on: UO-31
# NCI/ADR-RES = tested on: NCI/ADR-RES
# OVCAR-3 = tested on: OVCAR-3
# EKVX = tested on: EKVX
# DU-145 = tested on: DU-145
# LOX IMVI = tested on: LOX IMVI
# SK-MEL-2 = tested on: SK-MEL-2
# SNB-19 = tested on: SNB-19
# UACC-62 = tested on: UACC-62
# SNB-75 = tested on: SNB-75
# OVCAR-4 = tested on: OVCAR-4
# SK-MEL-5 = tested on: SK-MEL-5
# UACC-257 = tested on: UACC-257
# M14 = tested on: M14
# SN12C = tested on: SN12C
# Malme-3M = tested on: Malme-3M
# SK-MEL-28 = tested on: SK-MEL-28
# IGROV-1 = tested on: IGROV-1
# NCI-H226 = tested on: NCI-H226
# COLO 205 = tested on: COLO 205
# MOLT-4 = tested on: MOLT-4
# SF-539 = tested on: SF-539
smiles,measurement,setting,value
CCCn1cnc2c(SCc3ccc(Cl)cc3)nc(N)nc21,GI50,KM12,21.5 µM (inactive)
same,GI50,HCT-15,27.3 µM
same,GI50,RPMI-8226,16.1 µM (inactive)
same,GI50,HOP-62,17.3 µM (inactive)
same,GI50,SF-295,21.6 µM (inactive)
same,GI50,MDA-N,21.9 µM (inactive)
same,GI50,SR,13.5 µM (inactive)
same,GI50,RXF 393,22.3 µM (inactive)
same,GI50,MDA-MB-231,16.9 µM (inactive)
same,GI50,SF-268,36.3 µM (inactive)
same,GI50,HT-29,19.9 µM (inactive)
same,GI50,ACHN,16.3 µM (inactive)
same,GI50,HOP-92,44.5 µM (inactive)
same,GI50,NCI-H23,31 µM (inactive)
same,GI50,T47D,18.9 µM (inactive)
same,GI50,BT-549,29.1 µM (inactive)
same,GI50,CCRF-CEM,34.2 µM (inactive)
same,GI50,HCC 2998,20 µM (inactive)
same,GI50,OVCAR-5,28.4 µM (inactive)
same,GI50,SW-620,36.3 µM (inactive)
same,GI50,NCI-H522,16.5 µM (inactive)
same,GI50,CAKI-1,24.8 µM (inactive)
same,GI50,MCF7,31 µM (inactive)
same,GI50,MDA-MB-435,23.1 µM (inactive)
same,GI50,SK-OV-3,27.9 µM (inactive)
same,GI50,A549,39.4 µM (inactive)
same,GI50,PC-3,21.2 µM (inactive)
same,GI50,Hs-578T,47.2 µM (inactive)
same,GI50,OVCAR-8,40.1 µM (inactive)
same,GI50,NCI-H460,18.7 µM (inactive)
same,GI50,786-0,29.6 µM (inactive)
same,GI50,HL-60,18.2 µM (inactive)
same,GI50,A498,16.7 µM (inactive)
same,GI50,HCT-116,19.4 µM (inactive)
same,GI50,K562,16.2 µM (inactive)
same,GI50,TK-10,13.5 µM (inactive)
same,GI50,U-251,23.1 µM (inactive)
same,GI50,UO-31,5.85 µM (inactive)
same,GI50,NCI/ADR-RES,22.6 µM (inactive)
same,GI50,OVCAR-3,17.2 µM (inactive)
same,GI50,EKVX,15.5 µM (inactive)
same,GI50,DU-145,36.6 µM (inactive)
same,GI50,LOX IMVI,22 µM (inactive)
same,GI50,SK-MEL-2,18.4 µM (inactive)
same,GI50,SNB-19,51.6 µM (inactive)
same,GI50,UACC-62,21.6 µM (inactive)
same,GI50,SNB-75,21.9 µM (inactive)
same,GI50,OVCAR-4,32.7 µM (inactive)
same,GI50,SK-MEL-5,15.3 µM (inactive)
same,GI50,UACC-257,18.5 µM (inactive)
same,GI50,M14,32.4 µM (inactive)
same,GI50,SN12C,19.7 µM (inactive)
same,GI50,Malme-3M,26.9 µM (inactive)
same,GI50,SK-MEL-28,29 µM (inactive)
same,GI50,IGROV-1,40.4 µM (inactive)
CCCCCCCC/C=C\CCCCCCC/C=C1\C[C@](/C=C/C(=O)OC)(CO)OC1=O,GI50,KM12,3.37 µM (inactive)
same,GI50,HCT-15,2.75 µM
same,GI50,HOP-62,1.86 µM (inactive)
same,GI50,NCI-H226,2.61 µM (inactive)
same,GI50,SF-295,2.23 µM (inactive)
same,GI50,MDA-N,0.834 µM (active)
same,GI50,SR,2.74 µM (inactive)
same,GI50,RXF 393,5.28 µM (inactive)
same,GI50,MDA-MB-231,1.94 µM (inactive)
same,GI50,SF-268,1.96 µM (inactive)
same,GI50,HT-29,5.08 µM (inactive)
same,GI50,ACHN,2.19 µM (inactive)
same,GI50,HOP-92,2.94 µM (inactive)
same,GI50,NCI-H23,3.71 µM (inactive)
same,GI50,T47D,3.27 µM (inactive)
same,GI50,BT-549,2.33 µM (inactive)
same,GI50,CCRF-CEM,1.32 µM (inactive)
same,GI50,HCC 2998,5.36 µM (inactive)
same,GI50,OVCAR-5,5.98 µM (inactive)
same,GI50,SW-620,1.78 µM (inactive)
same,GI50,COLO 205,2.02 µM (inactive)
same,GI50,NCI-H522,2.58 µM (inactive)
same,GI50,CAKI-1,1.29 µM (inactive)
same,GI50,MOLT-4,0.611 µM (active)
same,GI50,MCF7,3.28 µM (inactive)
same,GI50,MDA-MB-435,1.25 µM (inactive)
same,GI50,SK-OV-3,6.3 µM (inactive)
same,GI50,A549,4.3 µM (inactive)
same,GI50,PC-3,1.79 µM (inactive)
same,GI50,Hs-578T,1.25 µM (inactive)
same,GI50,OVCAR-8,2.59 µM (inactive)
same,GI50,NCI-H460,3.44 µM (inactive)
same,GI50,786-0,1.33 µM (inactive)
same,GI50,HL-60,2.15 µM (inactive)
same,GI50,A498,8.34 µM (inactive)
same,GI50,HCT-116,2.16 µM (inactive)
same,GI50,K562,0.662 µM (active)
same,GI50,TK-10,1.93 µM (inactive)
same,GI50,U-251,1.85 µM (inactive)
same,GI50,UO-31,1.15 µM (inactive)
same,GI50,NCI/ADR-RES,3.47 µM (inactive)
same,GI50,OVCAR-3,5.32 µM (inactive)
same,GI50,EKVX,10.4 µM (inactive)
same,GI50,DU-145,10.8 µM (inactive)
same,GI50,LOX IMVI,1.38 µM (inactive)
same,GI50,SK-MEL-2,8.41 µM (inactive)
same,GI50,SNB-19,4.54 µM (inactive)
same,GI50,UACC-62,6.85 µM (inactive)
same,GI50,SNB-75,1.92 µM (inactive)
same,GI50,OVCAR-4,3.2 µM (inactive)
same,GI50,SK-MEL-5,3.31 µM (inactive)
same,GI50,UACC-257,12.6 µM (inactive)
same,GI50,M14,1.62 µM (inactive)
same,GI50,SN12C,1.56 µM (inactive)
same,GI50,SF-539,1.78 µM (inactive)
same,GI50,Malme-3M,1.4 µM (inactive)
same,GI50,SK-MEL-28,1.6 µM (inactive)
same,GI50,IGROV-1,2.75 µM (inactive)
